In patent US9884063B2, “Amido-substituted azole compounds” (Bayer Pharma Aktiengesellschaft, priority 2014, dated 2018):
pIC50: −log10 of the molar value. Structures can show the parent of a compound that is named as a salt.

Assays:
[1] = system: wildtype Wnt signaling cascade; assay: HEK293 TOP Assay (Super TopFlash luciferase reporter, Wnt-3a stimulated); format: cell-based; details: Homo sapiens
In short: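 HEK293 cells stably carrying Super TopFlash (TOP) or FOP reporter, stimulated with recombinant human Wnt-3a (2500–5 ng/ml, two-fold steps). Both lines incubated in parallel with compound from 50 μM to 15 nM (3.16-fold) in CAFTY buffer pH 7.4 with 2 mM Ca2+ and 0.01% BSA; selectivity judged TOP vs FOP.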

TNKS2 = target: T1, TNKS2 (Homo sapiens, UniProt Q9H2K2); assay: Modified TNKS2 Assay 3 (BPS kit #80578, biotin-NAD+, 96 well); format: biochemical; details: human TNKS2, BPS kit #80578, 96 well
T1 sequence (Q9H2K2 1-1166): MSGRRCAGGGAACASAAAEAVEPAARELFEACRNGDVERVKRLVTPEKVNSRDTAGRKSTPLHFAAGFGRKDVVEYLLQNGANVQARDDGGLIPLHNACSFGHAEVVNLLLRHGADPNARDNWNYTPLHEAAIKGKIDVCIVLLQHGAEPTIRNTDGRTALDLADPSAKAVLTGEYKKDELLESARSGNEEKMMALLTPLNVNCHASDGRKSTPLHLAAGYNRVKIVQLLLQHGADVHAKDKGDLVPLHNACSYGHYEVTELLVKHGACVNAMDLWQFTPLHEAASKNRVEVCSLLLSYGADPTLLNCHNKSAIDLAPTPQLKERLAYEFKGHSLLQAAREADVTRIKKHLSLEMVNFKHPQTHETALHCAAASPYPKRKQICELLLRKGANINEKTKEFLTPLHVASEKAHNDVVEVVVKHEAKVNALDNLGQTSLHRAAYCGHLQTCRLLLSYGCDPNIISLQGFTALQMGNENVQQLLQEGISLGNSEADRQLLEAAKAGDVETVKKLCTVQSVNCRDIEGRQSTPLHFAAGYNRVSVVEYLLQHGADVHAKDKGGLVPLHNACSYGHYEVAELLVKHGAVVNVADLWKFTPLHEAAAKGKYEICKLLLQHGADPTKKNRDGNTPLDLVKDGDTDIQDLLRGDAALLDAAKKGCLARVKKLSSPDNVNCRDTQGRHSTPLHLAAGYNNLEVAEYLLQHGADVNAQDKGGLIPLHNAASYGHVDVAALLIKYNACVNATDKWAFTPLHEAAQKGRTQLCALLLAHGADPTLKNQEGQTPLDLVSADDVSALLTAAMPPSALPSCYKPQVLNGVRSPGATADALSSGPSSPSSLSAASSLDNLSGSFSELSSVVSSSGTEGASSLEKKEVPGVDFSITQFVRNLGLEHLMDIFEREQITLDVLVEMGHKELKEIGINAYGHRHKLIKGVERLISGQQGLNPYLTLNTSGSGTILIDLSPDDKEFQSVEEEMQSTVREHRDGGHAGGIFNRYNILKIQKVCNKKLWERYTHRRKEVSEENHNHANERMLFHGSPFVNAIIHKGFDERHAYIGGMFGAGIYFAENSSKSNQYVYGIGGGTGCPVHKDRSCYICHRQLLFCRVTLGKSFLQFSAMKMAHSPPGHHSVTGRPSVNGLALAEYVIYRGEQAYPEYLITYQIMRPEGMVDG
In short: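 Commercial kit assay measuring TNKS2-catalysed incorporation of biotin-labelled NAD+ into a protein substrate, detected by streptavidin-HRP chemiluminescence. Run per manufacturer's protocol; IC50 is the concentration halving the normalised signal.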

[2] = HEK293, 16 h, HEK293 TOP reporter cell line, Wnt-3a at EC50, 16 hours incubation, compound dilution series 50 μM to 15 nM
[3] = HEK293, 16 h, HEK293 TOP reporter cells, Wnt3a at EC50, 16 hours, luciferase

Row | pIC50 [1, 2] | pIC50 (TNKS2) | pIC50 [1, 3] | SMILES | pIC50 ([1]; HEK293 TOP reporter cell line, Wnt-3a at EC50, 16 hours incubation, compound dilution series 50 μM to 15 nM)
1 | 6.60 | 8.52 | – | CCN1CCCC1CNC(=O)c1nc[nH]c1C(=O)Nc1ccc(NC(=O)c2ccc(F)cc2Cl)cc1 (stereo not drawn) [Example 390, N^5-{4-[(2-chloro-4-fluorobenzoyl)amino]phenyl}-N^4-[(1-ethylpyrrolidin-2-yl)methyl]-1H-imidazole-4,5-dicarboxamide] | –
2 | 6.92 | 7.52 | – | O=C(Nc1ccc(NC(=O)c2nc[nH]c2C(=O)NCCN2CCC[C@@H](F)C2)cc1)c1ccc(F)cc1Cl [Example 277, N^4-{4-[(2-chloro-4-fluorobenzoyl)amino]phenyl}-N^5-{2-[(3R)-3-fluoropiperidin-1-yl]ethyl}-1H-imidazole-4,5-dicarboxamide] | –
3 | 6.34 | 8.00 | – | CC(C)(N)CCNC(=O)c1[nH]cnc1C(=O)Nc1ccc(NC(=O)c2ccc(F)cc2Cl)cc1 [Example 286, N^5-(3-amino-3-methylbutyl)-N^4-{4-[(2-chloro-4-fluorobenzoyl)amino]phenyl}-1H-imidazole-4,5-dicarboxamide] | –
4 | 6.00 | 8.52 | – | CC(C)NCCNC(=O)c1[nH]cnc1C(=O)Nc1ccc(NC(=O)c2ccc(F)cc2Cl)cc1 [Example 288, N^4-{4-[(2-chloro-4-fluorobenzoyl)amino]phenyl}-N^5-[2-(isopropylamino)ethyl]-1H-imidazole-4,5-dicarboxamide] | –
5 | 7.52 | 9.05 | – | C[C@H]1CCCCN1CCNC(=O)c1[nH]cnc1C(=O)Nc1ccc(NC(=O)c2ccc(F)cc2Cl)cc1 [Example 266, N^4-{4-[(2-chloro-4-fluorobenzoyl)amino]phenyl}-N^5-{2-[(25)-2-methylpiperidin-1-yl]ethyl}-1H-imidazole-4,5-dicarboxamide formic acid salt] | –
6 | 6.37 | 6.64 | – | O=C(Nc1ccc(NC(=O)c2nc[nH]c2C(=O)NCC2CCCO2)cc1)c1ccc(F)cc1Cl (stereo not drawn) [Example 237, N^4-{4-[(2-chloro-4-fluorobenzoyl)amino]phenyl}-N^5-(tetrahydrofuran-2-ylmethyl)-1H-imidazole-4,5-dicarboxamide] | –
7 | 6.35 | 6.80 | – | O=C(Nc1ccc(NC(=O)c2nc[nH]c2C(=O)NCC2CCOCC2)cc1)c1ccc(F)cc1Cl [Example 233, N^4-{4-[(2-chloro-4-fluorobenzoyl)amino]phenyl}-N^5-(tetrahydro-2H-pyran-4-ylmethyl)-1H-imidazole-4,5-dicarboxamide] | –
8 | 6.62 | 6.82 | – | O=C(Nc1ccc(NC(=O)c2nc[nH]c2C(=O)NCC2CCOC2)cc1)c1ccc(F)cc1Cl (stereo not drawn) [Example 235, N^4-{4-[(2-chloro-4-fluorobenzoyl)amino]phenyl}-N^5-(tetrahydrofuran-3-ylmethyl)-1H-imidazole-4,5-dicarboxamide] | –
9 | 6.48 | 6.47 | – | CC(C)(O)CNC(=O)c1[nH]cnc1C(=O)Nc1ccc(NC(=O)c2ccc(F)cc2Cl)cc1 [Example 223, N^4-{4-[(2-chloro-4-fluorobenzoyl)amino]phenyl}-N^5-(2-hydroxy-2-methylpropyl)-1H-imidazole-4,5-dicarboxamide] | –
10 | 5.98 | 7.52 | – | CC(C)(N)CNC(=O)c1[nH]cnc1C(=O)Nc1ccc(NC(=O)c2ccc(F)cc2Cl)cc1 [Example 280, N^5-(2-amino-2-methylpropyl)-N^4-{4-[(2-chloro-4-fluorobenzoyl)amino]phenyl}-1H-imidazole-4,5-dicarboxamide] | –
11 | 6.54 | 8.05 | – | O=C(Nc1ccc(NC(=O)c2nc[nH]c2C(=O)NCCCN2CCCC2)cc1)c1ccc(F)cc1Cl [Example 274, N^4-{4-[(2-chloro-4-fluorobenzoyl)amino]phenyl}-N^5-[3-(pyrrolidin-1-yl)propyl]-1H-imidazole-4,5-dicarboxamide] | –

More lines, now with the values behind:

Row | SMILES | pIC50 [1, 2] | pIC50 (TNKS2) | pIC50 [1, 3] | pIC50 ([1]; HEK293 TOP reporter cell line, Wnt-3a at EC50, 16 hours incubation, compound dilution series 50 μM to 15 nM)
12 | CNC(=O)c1nc[nH]c1C(=O)Nc1ccc(NC(=O)c2ccc(C#N)cc2F)cc1 [Example 369, N^5-{4-[(4-cyano-2-fluorobenzoyl)amino]phenyl}-N^4-methyl-1H-imidazole-4,5-dicarboxamide] | 6.12 | 7.40 | – | –
13 | CNC(=O)c1nc[nH]c1C(=O)Nc1ccc(NC(=O)c2ccc(OC)cc2Cl)cc1 [Example 246, N^5-{4-[(2-chloro-4-methoxybenzoyl)amino]phenyl}-N^4-methyl-1H-imidazole-4,5-dicarboxamide] | 6.70 | 7.22 | – | –
14 | NC(=O)c1nc[nH]c1C(=O)Nc1ccc(NC(=O)c2ccccc2Cl)cc1 [Example 120, N^5-{4-[(2-chlorobenzoyl)amino]phenyl}-1H-imidazole-4,5-dicarboxamide] | 5.92 | 6.85 | – | –
15 | CCc1nc(C(=O)Nc2ccc(NC(=O)c3ccc(F)cc3Cl)cc2)c(C(=O)NCCN(C)C)[nH]1 [Example 69, N^4-{4-[(2-chloro-4-fluorobenzoyl)amino]phenyl}-N^5-[2-(dimethylamino)ethyl]-2-ethyl-1H-imidazole-4,5-dicarboxamide] | 6.72 | 6.72 | – | –
16 | CN(C)CCNC(=O)c1ncoc1C(=O)Nc1ccc(NC(=O)c2ccc(F)cc2Cl)cc1 [Example 31, N^5-{4-[(2-chloro-4-fluorobenzoyl)amino]phenyl}-N^4-[2-(dimethylamino)ethyl]-1,3-oxazole-4,5-dicarboxamide] | 5.80 | 6.89 | 5.80 | –
17 | O=C(Nc1ccc(NC(=O)c2nc[nH]c2C(=O)NCCN2CCCC(F)(F)C2)cc1)c1ccc(F)cc1Cl [Example 225, N^4-{4-[(2-chloro-4-fluorobenzoyl)amino]phenyl}-N^5-[2-(3,3-difluoropiperidin-1-yl)ethyl]-1H-imidazole-4,5-dicarboxamide] | 6.10 | 7.30 | – | –
18 | O=C(Nc1ccc(NC(=O)c2nc[nH]c2C(=O)NCCN2CCC(F)(F)CC2)cc1)c1ccc(F)cc1Cl [Example 224, N^4-{4-[(2-chloro-4-fluorobenzoyl)amino]phenyl}-N^5-[2-(4,4-difluoropiperidin-1-yl)ethyl]-1H-imidazole-4,5-dicarboxamide] | 5.90 | 6.85 | – | –
19 | CN1CCN(CCCNC(=O)c2nc[nH]c2C(=O)Nc2ccc(NC(=O)c3ccc(F)cc3Cl)cc2)CC1 [Example 392, N^5-{4-[(2-chloro-4-fluorobenzoyl)amino]phenyl}-N^4-[3-(4-methylpiperazin-1-yl)propyl]-1H-imidazole-4,5-dicarboxamide] | 6.80 | 8.15 | – | –
20 | O=C(Nc1ccc(NC(=O)c2[nH]cnc2C(=O)NCCN2CCCCC2)cc1F)c1ccc(F)cc1Cl [Example 74, N^5-{4-[(2-chloro-4-fluorobenzoyl)amino]-3-fluorophenyl}-N^4-[2-(piperidin-1-yl)ethyl]-1H-imidazole-4,5-dicarboxamide] | 7.15 | > 9.30 | – | –
21 | O=C(Nc1ccc(NC(=O)c2[nH]cnc2C(=O)NCCN2CCCCC2)cc1)c1ccc(F)cc1 [Example 33, N^4-{4-[(4-fluorobenzoyl)amino]phenyl}-N^5-[2-(piperidin-1-yl)ethyl]-1H-imidazole-4,5-dicarboxamide] | 6.35 | < 6.30 | 6.20 | –
22 | O=C(Nc1ccc(NC(=O)c2nc[nH]c2C(=O)NCCN2CCC(F)(F)CC2)cc1)c1ccccc1Cl [Example 214, N^4-{4-[(2-chlorobenzoyl)amino]phenyl}-N^5-[2-(4,4-difluoropiperidin-1-yl)ethyl]-1H-imidazole-4,5-dicarboxamide] | 5.90 | 7.15 | – | –
23 | O=C(Nc1ccc(NC(=O)c2nc[nH]c2C(=O)N[C@@H]2CCNC2)cc1)c1ccc(F)cc1Cl [Example 282, N^4-{4-[(2-chloro-4-fluorobenzoyl)amino]phenyl}-N^5-[(3R)-pyrrolidin-3-yl]-1H-imidazole-4,5-dicarboxamide hydrochloride salt] | – | 8.00 | – | 6.01
